“And” between values parts separate entries of the source, which are not always exact repeats. Equal values may be shown once.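 Grown in 96-well plates, cells were treated for 48 hours with each compound at five concentrations. Insufficient inhibition: endpoint recorded as highest concentration tested. GI50 = concentration required for 50% inhibition of growth. TGI: total growth inhibition.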
What follows are molecules tested on IGROV1 ovarian (assay: inhibition of tumour cell growth, NCI panel, 48 h).
With `O=C1c2ccn(CCCCNC(CO)(CO)CO)c2C(=O)c2c1c(O)c1ccccc1c2O` the GI50 was 2.01 µM and the TGI was > 100 µM. In the case of `COC(=O)/C=C/C1C(C(=O)OC)C2(C(=O)OC)CCC1(C(=O)OC)N2` (configuration not stated), the TGI is reported as > 100 µM. In the case of `CC(C)(C)N1CC2(CCCCC2)C1=O`, the TGI is reported as > 100 µM. In the case of `COc1ccc(-c2cc(-c3cccn3C)c(C#N)c(N)n2)cc1OC`, the GI50 is reported as 96 µM and the TGI is reported as > 100 µM. `COc1ccc(CNc2c3ccccc3nc3ccccc23)cc1OC` was tested, and the GI50 was 2.3 µM and the TGI was 6.55 µM. With `O=C(Nc1ccc(Cl)cc1F)c1cc(Br)ccc1O` the GI50 was 0.642 µM and the TGI was > 100 µM. Molecule `COc1ccc(-n2cc(-c3ccc(Cl)c(Cl)c3)nc2SCc2cccc(C#N)c2)cc1` has a GI50 of 4.77 µM and a TGI of 28.3 µM. In the case of `N#CC(/C(=N/NC(=O)C(=O)NN)C(=O)NC12CC3CC(CC(C3)C1)C2)c1ccccc1` (configuration not stated), the TGI is reported as > 100 µM. `Nc1c(C(=O)N/N=C/c2ccc(-c3ccc(Cl)cc3)o2)cnn1-c1ccnc2c(C(F)(F)F)cccc12` was tested, and the GI50 was > 100 µM and the TGI was > 100 µM. `Fc1ccc(Nc2cc(-n3nnc4ccccc43)nc3ccccc23)cc1` was tested, and the GI50 was 63.9 µM and the TGI was > 100 µM. In the case of `NC(=O)C(=CNc1nc(-c2ccc(Cl)c(Cl)c2)cs1)C(N)=O`, the GI50 is reported as 32.6 µM and the TGI is reported as > 100 µM. For `NC(N)=N/N=C/c1cc(Cl)cc(Cl)c1O`, the TGI was > 100 µM. For `O=C(Nc1cccc(Cl)c1)c1cc2ccccc2cc1O`, the GI50 was 2.71 µM and 2.06 µM and the TGI was > 100 µM. For `CCCCCCCCCc1cc(=O)c2c(O)cccc2o1`, the TGI was > 100 µM.

What follows are molecules tested on CAKI-1 renal (assay: inhibition of tumour cell growth, NCI panel, 48 h).
With `O=C1/C(=C\c2cccn2Cc2ccccc2)c2ccccc2N1c1c(Cl)cccc1Cl` the GI50 was > 28.9 µM and the TGI was > 100 µM. With `CCOC(=O)c1[nH]c(COC(C)=O)c(CCCOC(C)=O)c1CCCOC(C)=O` the TGI was > 100 µM. `Cc1sc2nc(NCCc3c[nH]c4ccc(Cl)cc34)[nH]c(=O)c2c1C` gave a GI50 of 1.5 µM and a TGI of 3.7 µM. `COc1ccc(/C=c2/sc3n(c2=O)C(c2ccc(OC)c(OC)c2)C2=C(N=3)c3cc(F)ccc3OC2)cc1` (configuration not stated) was tested, and the GI50 was 10.1 µM and the TGI was 41.7 µM. `O=C(Nc1ccc([N+](=O)[O-])cc1)C1C(=O)C(=O)N(c2ccc([N+](=O)[O-])cc2)C1=O` (configuration not stated) was tested, and the TGI was > 100 µM. For `O=C(O)c1cc(O)c2c(c1)C(C1c3cc(C(=O)O)cc(O)c3C(=O)c3c(OC4OC(CO)C(O)C(O)C4O)cccc31)c1cccc(OC3OC(CO)C(O)C(O)C3O)c1C2=O` (configuration not stated), the GI50 was > 100 µM and the TGI was > 100 µM. With `O=C(CN(C1CCCCC1)C1CCCCC1)Nc1ccc(S(=O)(=O)c2ccc(NC(=O)CN(C3CCCCC3)C3CCCCC3)cc2)cc1` the GI50 was 1.14 µM and the TGI was 2.35 µM. With `O=C(/C=C/c1c(O)ccc2ccccc12)c1ccc2ccccc2c1` the TGI was > 100 µM. In the case of `O=c1[nH]c2cc(Cl)ccc2n1C1CCN(CCCC(c2ccc(F)cc2)c2ccc(F)cc2)CC1`, the GI50 is reported as 0.488 µM and the TGI is reported as 1.97 µM. For `CCOC(=O)C1N(S(=O)(=O)c2ccc(C)cc2)CCC12C(c1ccc(OC)cc1)NC1CCCCC12` (configuration not stated), the TGI was > 100 µM. `Nc1nc(Br)nc2c1ncn2C1CC(O)C(CO)O1` (configuration not stated) was tested, and the GI50 was 2.88 µM and the TGI was > 29.9 µM. With `Nc1nc(Nc2ccccc2)c2ncn(Cc3cc4c(cc3Br)OCO4)c2n1` the GI50 was 0.135 µM and the TGI was > 55.2 µM. `CCOC(=O)N1CCN(C(=O)c2ccc(C(F)(F)F)nc2Nc2cc(Cl)ccc2C)CC1` was tested, and the GI50 was 21.1 µM and the TGI was 64.5 µM. In the case of `Cc1ccc(Nc2nc(N)c(C(=O)c3ccc(C#N)cc3)s2)cc1`, the GI50 is reported as 0.402 µM and the TGI is reported as 25 µM. `O=C1c2ccn(CCCCNC(CO)(CO)CO)c2C(=O)c2c1c(O)c1ccccc1c2O` showed a GI50 of 0.808 µM and a TGI of 2.68 µM. For `COC(=O)/C=C/C1C(C(=O)OC)C2(C(=O)OC)CCC1(C(=O)OC)N2` (configuration not stated), the TGI was > 100 µM. For `CC(C)(C)N1CC2(CCCCC2)C1=O`, the TGI was > 100 µM. In the case of `COc1ccc(-c2cc(-c3cccn3C)c(C#N)c(N)n2)cc1OC`, the GI50 is reported as > 100 µM and the TGI is reported as > 100 µM. With `COc1ccc(CNc2c3ccccc3nc3ccccc23)cc1OC` the GI50 was 1.87 µM and the TGI was 6.33 µM. `O=C(Nc1ccc(Cl)cc1F)c1cc(Br)ccc1O` showed a GI50 of 0.505 µM and a TGI of 4.19 µM. `COc1ccc(-n2cc(-c3ccc(Cl)c(Cl)c3)nc2SCc2cccc(C#N)c2)cc1` was tested, and the GI50 was 18 µM and the TGI was 48.8 µM. With `N#CC(/C(=N/NC(=O)C(=O)NN)C(=O)NC12CC3CC(CC(C3)C1)C2)c1ccccc1` (configuration not stated) the TGI was > 100 µM. With `Nc1c(C(=O)N/N=C/c2ccc(-c3ccc(Cl)cc3)o2)cnn1-c1ccnc2c(C(F)(F)F)cccc12` the GI50 was > 100 µM and the TGI was > 100 µM. In the case of `Fc1ccc(Nc2cc(-n3nnc4ccccc43)nc3ccccc23)cc1`, the GI50 is reported as 41.5 µM and the TGI is reported as > 68.9 µM. With `NC(=O)C(=CNc1nc(-c2ccc(Cl)c(Cl)c2)cs1)C(N)=O` the GI50 was 25.3 µM and the TGI was > 100 µM. For `NC(N)=N/N=C/c1cc(Cl)cc(Cl)c1O`, the TGI was > 100 µM. With `O=C(Nc1cccc(Cl)c1)c1cc2ccccc2cc1O` the GI50 was 2.1 µM and 1.51 µM and the TGI was > 100 µM. For `CCCCCCCCCc1cc(=O)c2c(O)cccc2o1`, the TGI was > 100 µM.

These molecules were tested on NCI-H460 lung (assay: inhibition of tumour cell growth, NCI panel, 48 h).
`O=C1/C(=C\c2cccn2Cc2ccccc2)c2ccccc2N1c1c(Cl)cccc1Cl` was tested, and the GI50 was 4.43 µM and the TGI was > 100 µM. With `CCOC(=O)c1[nH]c(COC(C)=O)c(CCCOC(C)=O)c1CCCOC(C)=O` the TGI was > 100 µM. Molecule `Cc1sc2nc(NCCc3c[nH]c4ccc(Cl)cc34)[nH]c(=O)c2c1C` has a GI50 of 2.54 µM and a TGI of 7.95 µM. In the case of `COc1ccc(/C=c2/sc3n(c2=O)C(c2ccc(OC)c(OC)c2)C2=C(N=3)c3cc(F)ccc3OC2)cc1` (configuration not stated), the GI50 is reported as 19.3 µM and the TGI is reported as > 100 µM. For `O=C(Nc1ccc([N+](=O)[O-])cc1)C1C(=O)C(=O)N(c2ccc([N+](=O)[O-])cc2)C1=O` (configuration not stated), the TGI was > 100 µM. `O=C(O)c1cc(O)c2c(c1)C(C1c3cc(C(=O)O)cc(O)c3C(=O)c3c(OC4OC(CO)C(O)C(O)C4O)cccc31)c1cccc(OC3OC(CO)C(O)C(O)C3O)c1C2=O` (configuration not stated) was tested, and the GI50 was > 100 µM and the TGI was > 100 µM. With `O=C(CN(C1CCCCC1)C1CCCCC1)Nc1ccc(S(=O)(=O)c2ccc(NC(=O)CN(C3CCCCC3)C3CCCCC3)cc2)cc1` the GI50 was 0.382 µM and the TGI was 1.63 µM. For `O=C(/C=C/c1c(O)ccc2ccccc12)c1ccc2ccccc2c1`, the TGI was > 100 µM. `O=c1[nH]c2cc(Cl)ccc2n1C1CCN(CCCC(c2ccc(F)cc2)c2ccc(F)cc2)CC1` gave a GI50 of 1.74 µM and a TGI of 3.14 µM. For `CCOC(=O)C1N(S(=O)(=O)c2ccc(C)cc2)CCC12C(c1ccc(OC)cc1)NC1CCCCC12` (configuration not stated), the TGI was > 100 µM. For `Nc1nc(Br)nc2c1ncn2C1CC(O)C(CO)O1` (configuration not stated), the GI50 was 61 µM and the TGI was > 100 µM. Work on `Nc1nc(Nc2ccccc2)c2ncn(Cc3cc4c(cc3Br)OCO4)c2n1` yielded a GI50 of 0.0304 µM and a TGI of 17.6 µM. With `CCOC(=O)N1CCN(C(=O)c2ccc(C(F)(F)F)nc2Nc2cc(Cl)ccc2C)CC1` the GI50 was 16.2 µM and the TGI was 33.6 µM. With `Cc1ccc(Nc2nc(N)c(C(=O)c3ccc(C#N)cc3)s2)cc1` the GI50 was 0.389 µM and the TGI was > 100 µM. Work on `O=C1c2ccn(CCCCNC(CO)(CO)CO)c2C(=O)c2c1c(O)c1ccccc1c2O` yielded a GI50 of 4.57 µM and a TGI of 13.8 µM. With `COC(=O)/C=C/C1C(C(=O)OC)C2(C(=O)OC)CCC1(C(=O)OC)N2` (configuration not stated) the TGI was > 100 µM. `CC(C)(C)N1CC2(CCCCC2)C1=O` was tested, and the TGI was > 100 µM. In the case of `COc1ccc(-c2cc(-c3cccn3C)c(C#N)c(N)n2)cc1OC`, the GI50 is reported as > 100 µM and the TGI is reported as > 100 µM. `COc1ccc(CNc2c3ccccc3nc3ccccc23)cc1OC` showed a GI50 of 2.49 µM and a TGI of 6.51 µM. With `O=C(Nc1ccc(Cl)cc1F)c1cc(Br)ccc1O` the GI50 was 0.653 µM and the TGI was 18.3 µM. With `COc1ccc(-n2cc(-c3ccc(Cl)c(Cl)c3)nc2SCc2cccc(C#N)c2)cc1` the GI50 was 51.5 µM and the TGI was > 100 µM. `N#CC(/C(=N/NC(=O)C(=O)NN)C(=O)NC12CC3CC(CC(C3)C1)C2)c1ccccc1` (configuration not stated) was tested, and the TGI was > 100 µM. In the case of `Nc1c(C(=O)N/N=C/c2ccc(-c3ccc(Cl)cc3)o2)cnn1-c1ccnc2c(C(F)(F)F)cccc12`, the GI50 is reported as > 100 µM and the TGI is reported as > 100 µM. `Fc1ccc(Nc2cc(-n3nnc4ccccc43)nc3ccccc23)cc1` was tested, and the GI50 was 26.2 µM and the TGI was > 100 µM. With `NC(=O)C(=CNc1nc(-c2ccc(Cl)c(Cl)c2)cs1)C(N)=O` the GI50 was 69.7 µM and the TGI was > 100 µM. For `NC(N)=N/N=C/c1cc(Cl)cc(Cl)c1O`, the TGI was > 100 µM. With `O=C(Nc1cccc(Cl)c1)c1cc2ccccc2cc1O` the GI50 was 2.47 µM and 2.48 µM and the TGI was > 100 µM. In the case of `CCCCCCCCCc1cc(=O)c2c(O)cccc2o1`, the TGI is reported as > 100 µM.

— PubChem BioAssay (NCI)
